Laboratory results taken from paper PMC12403558, “Novel enzymes involved in the biotransformation of oxytetracycline by Arthrobacter nicotianae OTC-16” (Microbiology Spectrum, 2025).

Key:
uaZ = biological target: T1, uaZ (Glutamicibacter nicotianae, UniProt A0ABQ0RHS3); test: OTC depletion by HPLC after adding […] mg expressed protein extract; format: biochemical; conditions: LB broth without strain OTC-16, 30 C, 180 rpm, 4 days, product not identified, not described as purified
T1 construct: gene ANI01nite_05670; E. coli BL21(DE3) soluble extract, no purification described; about 34 kDa; primers encode N-term MTTEITAPAD, C-term IWANIPAFI
T1 sequence (A0ABQ0RHS3 entry or part of it): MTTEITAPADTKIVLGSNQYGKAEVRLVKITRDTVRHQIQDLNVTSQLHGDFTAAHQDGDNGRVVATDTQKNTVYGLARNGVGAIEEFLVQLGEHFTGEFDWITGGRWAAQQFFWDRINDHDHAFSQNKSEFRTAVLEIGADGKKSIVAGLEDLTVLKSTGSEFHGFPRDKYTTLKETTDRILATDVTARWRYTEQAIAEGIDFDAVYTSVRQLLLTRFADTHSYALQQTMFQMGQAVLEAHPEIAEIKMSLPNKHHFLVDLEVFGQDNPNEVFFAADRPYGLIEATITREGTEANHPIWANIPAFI

prpD = biological target: T2, prpD (Glutamicibacter nicotianae, UniProt A0ABQ0RQ59); test: as above; format: biochemical; conditions: LB broth without strain OTC-16, 30 C, 180 rpm, 4 days, product not identified, not described as purified
T2 construct: gene ANI01nite_31520; E. coli BL21(DE3) soluble extract, no purification described; about 55 kDa; primers encode N-term MINHPVR, C-term PKGLF
T2 sequence (A0ABQ0RQ59 entry or part of it): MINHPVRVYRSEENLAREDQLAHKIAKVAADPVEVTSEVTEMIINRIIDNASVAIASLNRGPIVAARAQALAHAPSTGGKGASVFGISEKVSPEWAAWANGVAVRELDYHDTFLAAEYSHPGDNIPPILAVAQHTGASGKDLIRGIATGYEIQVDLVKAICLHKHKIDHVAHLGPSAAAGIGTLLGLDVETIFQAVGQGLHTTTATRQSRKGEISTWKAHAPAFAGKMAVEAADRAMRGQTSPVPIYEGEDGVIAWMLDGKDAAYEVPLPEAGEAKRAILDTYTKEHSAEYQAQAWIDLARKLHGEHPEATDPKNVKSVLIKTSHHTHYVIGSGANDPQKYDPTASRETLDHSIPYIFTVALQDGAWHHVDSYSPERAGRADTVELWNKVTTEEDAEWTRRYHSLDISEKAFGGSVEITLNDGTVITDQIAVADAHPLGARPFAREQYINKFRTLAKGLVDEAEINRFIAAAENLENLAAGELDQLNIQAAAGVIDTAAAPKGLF

SMILES: CN(C)[C@@H]1C(=O)C(C(N)=O)=C(O)[C@@]2(O)C(=O)C3=C(O)c4c(O)cccc4[C@@](C)(O)[C@H]3[C@H](O)[C@@H]12 [oxytetracycline]
- OTC depletion by HPLC after adding 0.1 mg expressed protein extract (uaZ): the degradation proteins prpD and uaZ exhibited degradation effects on OTC
- OTC depletion by HPLC after adding 0.1 mg expressed protein extract (prpD): the degradation proteins prpD and uaZ exhibited degradation effects on OTC
